Data reported in the NIST ThermoML archive (doi:10.1016/j.jct.2018.10.023).

Assay: wn = mass fraction of the nth substance listed
Conditions: 101 kPa, Liquid, Digital holographic interferometer

CCC(C)CO (centres undefined) [2-methyl-1-butanol] + CCCCCCC
binary diffusion coefficient [m2/s]
Conditions	w1 = 0.05	w1 = 0.15	w1 = 0.25	w1 = 0.35	w1 = 0.45	w1 = 0.55	w1 = 0.65	w1 = 0.75	w1 = 0.85	w1 = 0.95
288.15 K	1.02e-09	8.91e-10	7.99e-10	6.91e-10	6.03e-10	5.26e-10	4.81e-10	4.52e-10	4.61e-10	4.83e-10
298.15 K	1.24e-09	1.11e-09	1.01e-09	9.24e-10	8.43e-10	7.55e-10	7.02e-10	6.8e-10	6.9e-10	7.04e-10
308.15 K	1.49e-09	1.34e-09	1.24e-09	1.15e-09	1.08e-09	9.81e-10	9.31e-10	9.25e-10	9.36e-10	9.41e-10
318.15 K	1.73e-09	1.58e-09	1.5e-09	1.4e-09	1.33e-09	1.24e-09	1.17e-09	1.16e-09	1.18e-09	1.19e-09

[Cl-].[K+] [potassium chloride] + O
Conditions	binary diffusion coefficient [m2/s]
298.15 K, w1 = 0.025	1.85e-09

[Cl-].[Li+] [lithium chloride] + O
298.15 K
Conditions	binary diffusion coefficient [m2/s]
w1 = 0.011	1.31e-09
w1 = 0.027	1.23e-09

CC(C)CCO [3-methylbutan-1-ol] + CCCCCCC
binary diffusion coefficient [m2/s]
Conditions	w1 = 0.05	w1 = 0.15	w1 = 0.25	w1 = 0.35	w1 = 0.45	w1 = 0.55	w1 = 0.65	w1 = 0.75	w1 = 0.85	w1 = 0.95
288.15 K	1.74e-09	1.25e-09	9.07e-10	6.95e-10	6.1e-10	5.7e-10	6.18e-10	6.65e-10	7.11e-10	7.46e-10
298.15 K	1.99e-09	1.52e-09	1.17e-09	9.75e-10	8.69e-10	8.42e-10	8.91e-10	9.46e-10	9.85e-10	1.01e-09
308.15 K	2.28e-09	1.83e-09	1.44e-09	1.27e-09	1.15e-09	1.13e-09	1.17e-09	1.22e-09	1.29e-09	1.32e-09
318.15 K	2.54e-09	2.09e-09	1.75e-09	1.55e-09	1.43e-09	1.4e-09	1.46e-09	1.52e-09	1.56e-09	1.58e-09

[Cl-].[Na+] [sodium chloride] + O
Conditions	binary diffusion coefficient [m2/s]
298.15 K, w1 = 0.018	1.47e-09
